Where two headings read alike, the source gives them in different places.

What all share (test): SelectScreen Kinase Profiling, single point inhibition and IC50 for off-target kinases
Holding throughout (type): biochemical

Experiment [1] concerns the target T1, off-target kinases (Homo sapiens, UniProt Q8IYT8).
T1 sequence (Q8IYT8 1-1036): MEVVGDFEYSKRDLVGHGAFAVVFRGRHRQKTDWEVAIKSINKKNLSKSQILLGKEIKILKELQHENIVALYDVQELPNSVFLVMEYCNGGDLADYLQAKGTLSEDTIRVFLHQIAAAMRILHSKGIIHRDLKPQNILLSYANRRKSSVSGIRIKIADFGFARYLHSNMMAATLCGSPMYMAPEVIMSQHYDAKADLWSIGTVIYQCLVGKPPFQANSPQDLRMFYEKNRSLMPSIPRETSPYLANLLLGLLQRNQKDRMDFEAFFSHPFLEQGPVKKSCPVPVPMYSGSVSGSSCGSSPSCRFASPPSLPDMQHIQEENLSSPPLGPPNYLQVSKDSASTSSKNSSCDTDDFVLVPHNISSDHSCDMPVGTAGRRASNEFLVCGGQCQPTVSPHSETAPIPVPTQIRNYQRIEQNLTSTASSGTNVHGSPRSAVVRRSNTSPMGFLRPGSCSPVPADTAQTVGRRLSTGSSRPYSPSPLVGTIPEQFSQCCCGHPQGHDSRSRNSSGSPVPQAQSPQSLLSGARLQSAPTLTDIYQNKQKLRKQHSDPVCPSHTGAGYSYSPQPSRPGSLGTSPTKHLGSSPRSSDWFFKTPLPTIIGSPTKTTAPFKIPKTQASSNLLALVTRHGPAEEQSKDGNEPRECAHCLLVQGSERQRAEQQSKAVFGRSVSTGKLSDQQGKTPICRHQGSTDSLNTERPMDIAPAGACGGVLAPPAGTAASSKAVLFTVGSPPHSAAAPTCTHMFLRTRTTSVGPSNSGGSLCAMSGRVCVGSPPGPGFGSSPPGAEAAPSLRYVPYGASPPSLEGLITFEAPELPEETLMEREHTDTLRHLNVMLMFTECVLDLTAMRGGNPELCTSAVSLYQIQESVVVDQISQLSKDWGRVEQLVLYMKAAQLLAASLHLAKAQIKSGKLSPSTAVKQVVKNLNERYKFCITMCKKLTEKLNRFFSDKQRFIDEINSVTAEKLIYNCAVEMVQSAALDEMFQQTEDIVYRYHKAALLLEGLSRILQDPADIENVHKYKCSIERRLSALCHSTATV
To be noted: ULK2, LanthaScreen Binding. (In general: TR-FRET usually uses a lanthanide donor and a delayed reading to cut background.)

For experiment [2], the target named is off-target kinases (Homo sapiens, UniProt Q14012). As to conditions: CAMK1 (CaMK1), Adapta, ATP 10.
Experiment [3] has as its target off-target kinases (Homo sapiens, UniProt Q14680). As to conditions: MELK, ZLYTE, ATP Km app.
Experiment [4] addresses off-target kinases (Homo sapiens, UniProt P36894). As to conditions: BMPR1A (ALK3), LanthaScreen Binding.
In experiment [5] the target is off-target kinases (Homo sapiens, UniProt P31751). To be noted: AKT2 (PKB beta), ZLYTE, ATP Km app.
Experiment [6] concerns the target off-target kinases (Homo sapiens, UniProt P24723). As to conditions: PRKCH (PKC eta), ZLYTE, ATP Km app.

Chain of off-target kinases (Homo sapiens, UniProt Q14012) (Q14012 whole entry): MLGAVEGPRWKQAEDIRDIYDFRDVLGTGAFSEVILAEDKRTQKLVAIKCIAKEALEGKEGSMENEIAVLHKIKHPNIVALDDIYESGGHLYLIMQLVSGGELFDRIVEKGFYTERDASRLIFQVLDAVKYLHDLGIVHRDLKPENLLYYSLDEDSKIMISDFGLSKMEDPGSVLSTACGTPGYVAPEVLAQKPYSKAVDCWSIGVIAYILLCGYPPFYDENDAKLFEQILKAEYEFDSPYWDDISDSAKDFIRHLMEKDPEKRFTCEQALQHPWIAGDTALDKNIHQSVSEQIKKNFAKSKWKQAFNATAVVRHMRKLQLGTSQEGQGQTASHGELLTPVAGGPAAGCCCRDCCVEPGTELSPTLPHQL
Chain of off-target kinases (Homo sapiens, UniProt P24723) (P24723 whole entry): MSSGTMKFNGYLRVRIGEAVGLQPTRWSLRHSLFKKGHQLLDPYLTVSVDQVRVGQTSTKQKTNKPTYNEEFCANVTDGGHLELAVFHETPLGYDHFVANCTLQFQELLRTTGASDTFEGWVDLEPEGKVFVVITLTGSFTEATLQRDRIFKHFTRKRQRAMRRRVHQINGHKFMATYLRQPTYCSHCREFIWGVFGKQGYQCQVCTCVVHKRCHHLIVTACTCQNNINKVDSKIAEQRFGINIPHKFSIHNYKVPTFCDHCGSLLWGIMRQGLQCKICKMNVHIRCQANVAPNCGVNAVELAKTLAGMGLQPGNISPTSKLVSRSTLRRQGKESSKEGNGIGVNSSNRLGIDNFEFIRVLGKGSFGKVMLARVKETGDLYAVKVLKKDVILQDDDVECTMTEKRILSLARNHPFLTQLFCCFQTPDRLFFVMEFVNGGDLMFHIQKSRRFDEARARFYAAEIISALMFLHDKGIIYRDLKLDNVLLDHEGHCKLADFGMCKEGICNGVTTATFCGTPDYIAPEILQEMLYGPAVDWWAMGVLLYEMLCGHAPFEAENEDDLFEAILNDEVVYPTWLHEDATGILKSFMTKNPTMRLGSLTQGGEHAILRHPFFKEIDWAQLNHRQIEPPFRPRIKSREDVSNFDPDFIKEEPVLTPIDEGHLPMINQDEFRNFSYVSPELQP
Chain of off-target kinases (Homo sapiens, UniProt P31751) (P31751 whole entry): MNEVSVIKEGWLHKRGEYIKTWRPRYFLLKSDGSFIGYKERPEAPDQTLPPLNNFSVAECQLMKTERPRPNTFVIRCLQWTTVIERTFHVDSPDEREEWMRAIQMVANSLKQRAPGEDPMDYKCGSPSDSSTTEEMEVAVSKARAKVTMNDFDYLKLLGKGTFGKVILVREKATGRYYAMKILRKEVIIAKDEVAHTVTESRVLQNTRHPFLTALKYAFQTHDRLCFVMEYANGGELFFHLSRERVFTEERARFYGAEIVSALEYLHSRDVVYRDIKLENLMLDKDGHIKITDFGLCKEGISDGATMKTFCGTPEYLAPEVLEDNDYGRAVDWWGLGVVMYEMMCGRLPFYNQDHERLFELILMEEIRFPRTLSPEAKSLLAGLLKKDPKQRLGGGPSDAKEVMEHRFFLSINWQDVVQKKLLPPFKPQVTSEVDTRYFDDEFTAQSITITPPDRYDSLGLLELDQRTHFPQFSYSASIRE
Chain of off-target kinases (Homo sapiens, UniProt P36894) (P36894 24-532): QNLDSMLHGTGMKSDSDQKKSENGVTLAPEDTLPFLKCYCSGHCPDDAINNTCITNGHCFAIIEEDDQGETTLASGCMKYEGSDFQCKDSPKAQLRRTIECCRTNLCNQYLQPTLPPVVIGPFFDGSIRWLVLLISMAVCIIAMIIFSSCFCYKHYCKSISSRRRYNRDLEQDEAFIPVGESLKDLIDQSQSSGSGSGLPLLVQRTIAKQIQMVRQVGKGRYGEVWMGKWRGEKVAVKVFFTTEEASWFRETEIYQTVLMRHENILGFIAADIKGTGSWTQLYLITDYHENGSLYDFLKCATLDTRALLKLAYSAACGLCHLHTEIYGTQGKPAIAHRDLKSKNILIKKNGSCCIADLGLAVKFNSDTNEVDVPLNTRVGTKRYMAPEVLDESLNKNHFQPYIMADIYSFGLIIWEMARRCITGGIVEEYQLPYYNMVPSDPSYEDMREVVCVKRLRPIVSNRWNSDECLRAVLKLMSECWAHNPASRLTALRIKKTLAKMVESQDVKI
Chain of off-target kinases (Homo sapiens, UniProt Q14680) (Q14680 whole entry): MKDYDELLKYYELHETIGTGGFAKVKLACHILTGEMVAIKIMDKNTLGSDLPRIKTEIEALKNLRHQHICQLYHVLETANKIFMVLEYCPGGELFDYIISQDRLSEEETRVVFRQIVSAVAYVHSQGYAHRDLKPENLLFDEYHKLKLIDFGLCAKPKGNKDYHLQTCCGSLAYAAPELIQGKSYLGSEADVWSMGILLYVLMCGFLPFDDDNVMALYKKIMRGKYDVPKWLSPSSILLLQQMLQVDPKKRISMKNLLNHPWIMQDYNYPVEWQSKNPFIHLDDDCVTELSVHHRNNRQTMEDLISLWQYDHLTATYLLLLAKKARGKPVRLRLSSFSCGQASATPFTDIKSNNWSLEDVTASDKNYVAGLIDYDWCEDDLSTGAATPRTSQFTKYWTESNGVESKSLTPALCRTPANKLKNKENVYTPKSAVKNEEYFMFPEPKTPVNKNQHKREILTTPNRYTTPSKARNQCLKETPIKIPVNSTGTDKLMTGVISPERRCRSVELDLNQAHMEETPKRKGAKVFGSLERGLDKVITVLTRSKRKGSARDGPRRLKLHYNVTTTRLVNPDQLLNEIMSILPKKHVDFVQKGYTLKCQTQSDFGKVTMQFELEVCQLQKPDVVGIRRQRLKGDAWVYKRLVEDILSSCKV

A word on the inhibition: it is the percentage by which the read-out fell short of the control. Take `N#Cc1cc(-c2ncnc(Nc3ccc(N4CCN(C5COC5)CC4)cc3)n2)ccc1OC1CCOCC1` [Compound 1, 5-(4-((4-(4-(oxetan-3-yl)piperazin-1-yl)phenyl)amino)-1,3,5-triazin-2-yl)-2-((tetrahydro-2H-pyran-4-yl)oxy)benzonitrile]: the inhibition was determined as 86% on off-target kinases [1] (read-out: % Inhibition 1); 90% on off-target kinases [1] (read-out: % Inhibition 2); 88% at off-target kinases [1] (read-out: % Inhibition Avg); 7% at off-target kinases [2] (read-out: % Inhibition 1); 8% at off-target kinases [2] (read-out: % Inhibition 2); 7% on off-target kinases [2] (read-out: % Inhibition Avg). Further, the inhibition on off-target kinases [3] (read-out: % Inhibition 1) is 25%; at off-target kinases [3] (read-out: % Inhibition 2), 22%; at off-target kinases [3] (read-out: % Inhibition Avg), 23%; at off-target kinases [4] (read-out: % Inhibition 1), 51%; at off-target kinases [4] (read-out: % Inhibition 2), 51%; on off-target kinases [4] (read-out: % Inhibition Avg), 51%. The inhibition worked out at 3% on off-target kinases [5] (read-out: % Inhibition 1); 2% on off-target kinases [5] (read-out: % Inhibition 2); 3% on off-target kinases [5] (read-out: % Inhibition Avg); 12% at off-target kinases [6] (read-out: % Inhibition 1); 8% at off-target kinases [6] (read-out: % Inhibition 2); 10% at off-target kinases [6] (read-out: % Inhibition Avg).

The record behind these values is US11572590B2, “Methods for evaluating tumor cell spheroids using 3D microfluidic cell culture device” (Dana-Farber Cancer Institute, Inc., priority 2017, dated 2023).
